The text below walks through data of US9617216B2, “Antifungal oxodihydropyridinecarbohydrazide derivative” (Daewoong Pharmaceutical Co., Ltd., priority 2013, dated 2017).

SMILES strings stand for the structures. In brackets after ≈: the same amount, converted by molar mass. A value given as a limit tells only on which side of the number the result lay.

Assay type in all cases: cell-based
Assay [1] relates to Candida albicans. Kind of assay: In vitro antifungal activity test (MIC), Candida albicans. As to conditions: concentration at which growth is inhibited by 80% vs negative control, 35° C., 24 hours, RPMI 1640, alama blue; for MIC80: Candida albicans. Here is the method:
(§1) The antifungal activities of the compounds of the present invention were evaluated using Candida albicans as yeast fungus, and Aspergillus fumigatus as a filamentous fungus. The above fungi used were all purchased from American Type Culture Collection (ATCC). The strains used in the experiment were inoculated into a Sabouraud dextrose agar medium, and then cultured at 35° C. for a sufficient period of time, e.g., 24 hours for Candida albicans, and about 7 days for Aspergillus fumigatus. As for Candida albicans, about 5 to 7 single colonies were taken from the cultured medium, sufficiently suspended in 1 ml of 0.85% sterile saline solution, and adjusted to have an optical density of 0.095 to 0.107 at 530 nm. A preparation of a strain diluent was diluted in Roswell park memorial institute (RPMI) 1640 medium at a 1:10 ratio, and the resultant was diluted again at a 1:100 ratio to obtain an inoculation preparation for Candida albicans with a concentration of 1.0×10^3 to 5.0×10^3 CFU/mL. As for Aspergillus fumigatus, the cultured Sabouraud dextrose agar was added with 1 mL of 0.2% Tween 20 diluted with 0.85% sterile saline solution, and then the plate was shaken to detach conidium from the plate. The solution collected from the plate surface was transferred into a sterile tube, and placed at room temperature for 5 minutes to deposit heavy substances. The resulting supernatant was transferred into the sterile tube, sufficiently suspended for about 15 seconds, and prepared a strain diluent with a concentration of 0.4×10^6 to 5.0×10^6 CFU/mL using a hemocytometer. The thus prepared strain diluent was diluted in RPMI 1640 medium at a 1:100 ratio to obtain an inoculation preparation for Aspergillus fumigatus. Candida albicans was cultured at 35° C. for 24 hours and Aspergillus fumigatus was cultured at 35° C. for 48 hours, and the concentrations, at which growth is inhibited by 80% or 50% compared to a negative control group, were determined using alama blue color developing reagent. All experiments were repeated twice for each concentration, and the results of antifungal activities (MIC80 MIC50 μg/mL) are shown in Tables 1 to 2.

For assay [2], the system named is Candida albicans. Kind of assay: In vitro fungicidal activity test (MFC, minimum fungicidal concentration). As to conditions: minimum concentration with no fungal growth, Sabouraud dextrose agar plate, 35° C., 48 hours, naked eye; for MFC: Candida albicans. As to the method:
As samples of fungicidal agents, 10 mM stock solutions were diluted 10-fold by adding with RPMI 1640 medium, followed by a 5-fold serial dilution, and used as the highest concentration for evaluation of antifungal activity (MIC). The samples with the highest concentration of the fungicidal agents were treated with a 2-fold serial dilution into 11 different concentrations, and the final concentrations were determined by mixing with the strains at a 1:1 ratio. In particular, the concentration of dimethylsulfoxide used as an excipient was made to a final 1% (VN). The evaluations of the fungicidal activity of Candida albicans were performed using a test plate already completed of antifungal activity, from the highest concentration of a given sample to the concentration right next to the concentration determined to be MIC. Test solutions at each concentration were pipetted about 5 times, all were collected (about a total of 225 μL), and added into a 12-well Sabouraud dextrose agar plate.

The test system of the next assay is Aspergillus fumigatus. Kind of assay: In vitro antifungal activity test (MIC), Aspergillus fumigatus. The note with it: concentration at which growth is inhibited by 50% vs negative control, 35° C., 48 hours, RPMI 1640, alama blue; for MIC50: Aspergillus fumigatus. Here is the method:
as §1

Broadly, the MIC80 is the lowest concentration that inhibits either 80% of growth or 80% of the strains tested, depending on the study. Read a low MIC80 as higher susceptibility. A word on the MFC: it is the smallest concentration meeting the test's criterion for killing the fungus. A lower MFC goes with more potent killing. Molecule `Cn1cc(C(=O)NNc2cccc(F)c2)ccc1=O` [Example 2, N′-(3-fluorophenyl)-1-methyl-6-oxo-1,6-dihydropyridine-3-carbohydrazide] returned an MIC80 against Candida albicans [1] of 0.02 µg/mL (≈ 0.0766 µM). This molecule also had an MFC against Candida albicans [2] of 0.1 µg/mL (≈ 0.383 µM).
The term MIC50 denotes an inhibitory concentration at the 50% level, which refers to growth in some studies and to a panel of isolates in others. `Cn1cc(C(=O)NNc2cc(F)cc(F)c2)ccc1=O` [Example 13, N′-(3,5-difluorophenyl)-1-methyl-6-oxo-1,6-dihydropyridine-3-carbohydrazide] returned an MIC80 with Candida albicans [1] of 0.03 µg/mL (≈ 0.107 µM). In the assay on Aspergillus fumigatus, this molecule showed an MIC50 of 0.44 µg/mL (≈ 1.58 µM). In addition, the minimal fungicidal concentration (MFC) against Candida albicans [2] was determined as 0.1 µg/mL (≈ 0.358 µM).
As to `COc1ncc(NNC(=O)c2ccc(=O)n(C)c2)cc1F` [Example 21, N′-(5-fluoro-6-methoxypyridine-3-yl)-1-methyl-6-oxo-1,6-dihydropyridine-3-carbohydrazide], the MIC80 in the assay on Candida albicans [1] came to 0.03 µg/mL (≈ 0.103 µM). This molecule gave an MIC50 in the assay with Aspergillus fumigatus of 0.5 µg/mL (≈ 1.71 µM). This molecule gave an MFC in the assay on Candida albicans [2] of 0.1 µg/mL (≈ 0.342 µM).
Turning to `O=C(NNc1ccc(F)cc1)c1c(Cl)cc(=O)n2c1CCC2` [Example 34, 7-chloro-N′-(4-fluorophenyl)-5-oxo-1,2,3,5-tetrahydroindolizine-8-carbohydrazide], the MIC80 with Candida albicans [1] worked out at 0.25 µg/mL (≈ 0.777 µM). The MIC50 with Aspergillus fumigatus is 1 µg/mL (≈ 3.11 µM).
In turn, `COc1ncc(NNC(=O)c2cc(-c3ccc(F)cc3)c(=O)n(C)c2)cc1F` [Example 37, N′-(5-fluoro-6-methoxypyridine-3-yl)-5-(4-fluorophenyl)-1-methyl-6-oxo-1,6-dihydropyridine-3-carbohydrazide] displayed an MIC80 in the assay on Candida albicans [1] of 0.04 µg/mL (≈ 0.104 µM). This molecule showed an MIC50 in the assay with Aspergillus fumigatus of 0.3 µg/mL (≈ 0.776 µM). For the same molecule, the MFC in the assay with Candida albicans [2] worked out at 0.1 µg/mL (≈ 0.259 µM).
On to `COc1ncc(NNC(=O)c2cc(-c3ccc(Cl)cc3)c(=O)n(C)c2)cc1F` [Example 38, 5-(4-chlorophenyl)-N′-(5-fluoro-6-methoxypyridine-3-yl)-1-methyl-6-oxo-1,6-dihydropyridine-3-carbohydrazide], for which, in the assay on Candida albicans [1], the MIC80 stood at 0.02 µg/mL (≈ 0.0497 µM). This molecule also registered an MIC50 in the assay with Aspergillus fumigatus of 0.3 µg/mL (≈ 0.745 µM). This molecule showed an MFC against Candida albicans [2] of 0.1 µg/mL (≈ 0.248 µM).
The matching figures for `COc1ncc(NNC(=O)c2cc(-c3ccc(C(F)(F)F)cc3)c(=O)n(C)c2)cc1F` [Example 39, N′-(5-fluoro-6-methoxypyridine-3-yl)-1-methyl-6-oxo-5-(4-(trifluoromethyl)phenyl)-1,6-dihydropyridine-3-carbohydrazide]: 0.04 µg/mL (≈ 0.0917 µM), 0.7 µg/mL (≈ 1.6 µM) and 0.2 µg/mL (≈ 0.458 µM).
In the assay with Candida albicans [1], `COc1ncc(NNC(=O)c2cc(-c3ccc(C#N)cc3)c(=O)n(C)c2)cc1F` [Example 40, 5-(4-cyanophenyl)-N′-(5-fluoro-6-methoxypyridine-3-yl)-1-methyl-6-oxo-1,6-dihydropyridine-3-carbohydrazide] came in with an MIC80 of 0.04 µg/mL (≈ 0.102 µM). Also, in the assay on Candida albicans [2], the MFC was 0.2 µg/mL (≈ 0.508 µM).
The molecule `COc1ncc(NNC(=O)c2ccc(=O)n(-c3cccc(Cl)c3)c2)cc1F` [Example 48, 1-(3-chlorophenyl)-N′-(5-fluoro-6-methoxypyridine-3-yl)-6-oxo-1,6-dihydropyridine-3-carbohydrazide] yielded an MIC80 against Candida albicans [1] of 0.04 µg/mL (≈ 0.103 µM). In the assay with Aspergillus fumigatus, the MIC50 turned out to be 0.6 µg/mL (≈ 1.54 µM).
For `O=C(NNc1ccc(F)cc1F)c1ccc(=O)n(Cc2cscn2)c1` [Example 49, N′-(2,4-difluorophenyl)-6-oxo-1-(thiazol-4-ylmethyl)-1,6-dihydropyridine-3-carbohydrazide], in that order: 0.28 µg/mL (≈ 0.773 µM) and 0.3 µg/mL (≈ 0.828 µM).
The matching figures for `O=C(NNc1cc(F)cc(F)c1)c1ccc(=O)n(Cc2ccc(C(F)(F)F)nc2)c1` [Example 53, N′-(3,5-difluorophenyl)-6-oxo-1-((6-(trifluoromethyl)pyridine-3-yl)methyl)-1,6-dihydropyridine-3-carbohydrazide]: 0.04 µg/mL (≈ 0.0943 µM) and 0.7 µg/mL (≈ 1.65 µM).
For `O=C(NNc1ccc(F)cc1F)c1ccc(=O)n(Cc2ccc(C(F)(F)F)nc2)c1` [Example 54, N′-(2,4-difluorophenyl)-6-oxo-1-((6-(trifluoromethyl)pyridine-3-yl)methyl)-1,6-dihydropyridine-3-carbohydrazide], in that order: 0.08 µg/mL (≈ 0.189 µM) and 0.7 µg/mL (≈ 1.65 µM).
As to `CC[C@H](C)C[C@H](C)CCCCCCCCC(=O)N[C@H]1C[C@@H](O)[C@@H](NCCN)NC(=O)[C@@H]2[C@@H](O)CCN2C(=O)[C@H]([C@H](O)CCN)NC(=O)[C@H]([C@H](O)[C@@H](O)c2ccc(O)cc2)NC(=O)[C@@H]2C[C@@H](O)CN2C(=O)[C@H]([C@@H](C)O)NC1=O` [caspofungin, reference compound], the “Candida albicans MIC80” value with Candida albicans [1] worked out at 0.25 µg/mL. Further, in the assay with Aspergillus fumigatus, the “Aspergillus fumigatus MIC50” value amounted to 0.3 µg/mL. Further, in the assay with Candida albicans [2], the “Candida albicans MFC” value was 4 µg/mL.
Molecule `OC(Cn1cncn1)(Cn1cncn1)c1ccc(F)cc1F` [fluconazole, reference compound] came in with an MIC80 in the assay on Candida albicans [1] of 0.25 µg/mL (≈ 0.816 µM). Moreover, the MIC50 with Aspergillus fumigatus is more than 32 µg/mL. In the assay with Candida albicans [2], this molecule returned an MFC of more than 32 µg/mL.
